# Measured values as given in patent US11098010B2 (priority 2017, dated 2021).
# Structures can show the parent of a compound that is named as a salt.
# Tested on: HBV rcDNA in HepDE19 cells
# Assay: HepDE19 assay with bDNA quantitation of HBV rcDNA
# Format: cell-based, hepatitis B virus (HBV)
# Settings: Hepatitis B virus, HepDE19, 168 h, HepDE19 cells, inhibition of rcDNA formation, 7 day incubation, top concentration 25 μM; read-out: DE-19 bDNA EC50
row,SMILES,EC50
1,"O=C(Nc1ccc(F)c(Cl)c1)c1ccc(F)c2c1CC[C@@H]2O [Compound 81, (S)—N-(3-Chloro-4-fluorophenyl)-7-fluoro-1-hydroxy-2,3-dihydro-1H-indene-4-carboxamide]",0.67 µM
2,"O=C(N[C@H]1CCc2c(C(=O)Nc3ccc(F)c(Cl)c3)ccc(F)c21)OCC(F)F [Compound 84, O-2,2-Difluoroethyl, N—(S)-(4-((3-chloro-4-fluorophenyl)carbamoyl)-7-fluoro-2,3-dihydro-1H-inden-1-yl) carbamate]",0.17 µM
3,"O=C(N[C@H]1CCc2c(C(=O)Nc3ccc(F)c(Cl)c3)ccc(F)c21)OCc1ccncn1 [Compound 85, O-Pyrimidin-4-ylmethyl, N—(S)-(4-((3-chloro-4-fluorophenyl)carbamoyl)-7-fluoro-2,3-dihydro-1H-inden-1-yl) carbamate]",0.58 µM
4,"CNC(=O)O[C@H]1CCc2c(C(=O)Nc3ccc(F)c(Cl)c3)ccc(F)c21 [Compound 89, O—(S)-4-((3-Chloro-4-fluorophenyl)carbamoyl)-7-fluoro-2,3-dihydro-1H-inden-1-yl, N-methyl Carbamate]",0.56 µM
5,"O=C(OCc1ccccn1)O[C@H]1CCc2c(C(=O)Nc3ccc(F)c(Cl)c3)ccc(F)c21 [Compound 90, (S)-4-((3-Chloro-4-fluorophenyl)carbamoyl)-7-fluoro-2,3-dihydro-1H-inden-1-yl (pyridin-2-ylmethyl) carbonate]",1.9 µM
6,"O=C(N[C@H]1CCc2c(C(=O)Nc3ccc(F)c(Cl)c3)ccc(F)c21)OCc1cncs1 [Compound 91, O-Thiazol-5-ylmethyl, N—(S)-(4-((3-chloro-4-fluorophenyl)carbamoyl)-7-fluoro-2,3-dihydro-1H-inden-1-yl) carbamate]",0.07 µM
7,"O=C(N[C@H]1CCc2c(C(=O)Nc3ccc(F)c(Cl)c3)ccc(F)c21)OCc1nccs1 [Compound 92, O-Thiazol-2-ylmethyl, N—(S)-(4-((3-chloro-4-fluorophenyl)carbamoyl)-7-fluoro-2,3-dihydro-1H-inden-1-yl) carbamate]",0.18 µM
8,"O=C(N[C@H]1CCc2c(C(=O)Nc3ccc(F)c(Cl)c3)ccc(F)c21)OCc1cocn1 [Compound 93, O-Oxazol-4-ylmethyl, N—(S)-(4-((3-chloro-4-fluorophenyl)carbamoyl)-7-fluoro-2,3-dihydro-1H-inden-1-yl) carbamate]",0.49 µM
9,"O=C(N[C@H]1CCc2c(C(=O)Nc3ccc(F)c(Cl)c3)ccc(F)c21)OCc1ncco1 [Compound 94, O-Oxazol-2-ylmethyl, N—(S)-(4-((3-chloro-4-fluorophenyl)carbamoyl)-7-fluoro-2,3-dihydro-1H-inden-1-yl) carbamate]",0.07 µM
10,"O=C(N[C@H]1CCc2c(C(=O)Nc3ccc(F)c(Cl)c3)ccc(F)c21)OCc1cnco1 [Compound 95, O-Oxazol-5-ylmethyl, N—(S)-(4-((3-chloro-4-fluorophenyl)carbamoyl)-7-fluoro-2,3-dihydro-1H-inden-1-yl) carbamate]",0.06 µM
11,"Cn1ccc(C(=O)N[C@H]2CCc3c(C(=O)Nc4ccc(F)c(Cl)c4)ccc(F)c32)n1 [Compound 98, (S)—N-(4-((3-Chloro-4-fluorophenyl)carbamoyl)-7-fluoro-2,3-dihydro-1H-inden-1-yl)-1-methyl-1H-pyrazole-3-carboxamide]",0.82 µM
12,"Cn1nccc1C(=O)N[C@H]1CCc2c(C(=O)Nc3ccc(F)c(Cl)c3)ccc(F)c21 [Compound 100, (S)—N-(4-((3-Chloro-4-fluorophenyl)carbamoyl)-7-fluoro-2,3-dihydro-1H-inden-1-yl)-1-methyl-1H-pyrazole-5-carboxamide]",0.74 µM
13,"Cn1ccc(S(=O)(=O)N[C@H]2CCc3c(C(=O)Nc4ccc(F)c(Cl)c4)ccc(F)c32)n1 [Compound 101, (S)—N-(3-Chloro-4-fluorophenyl)-7-fluoro-1-((1-methyl-1H-pyrazole)-3-sulfonamido)-2,3-dihydro-1H-indene-4-carboxamide]",0.72 µM
14,"Cn1cnc(COC(=O)N[C@H]2CCc3c(C(=O)Nc4ccc(F)c(Cl)c4)ccc(F)c32)n1 [Compound 102, O-(1-Methyl-1H-1,2,4-triazol-3-yl)methyl, N—(S)-(4-((3-chloro-4-fluorophenyl)carbamoyl)-7-fluoro-2,3-dihydro-1H-inden-1-yl) carbamate]",0.07 µM

# Same assay, conditions: Hepatitis B virus, HepDE19, 168 h, read-out: DE-19 bDNA EC50 (μM), HepDE19 cells, inhibition of rcDNA formation, 7 day incubation, top concentration 25 μM
row,SMILES,EC50
1,"O=C(N[C@H]1CCc2c(C(=O)Nc3ccc(F)c(Cl)c3)ccc(F)c21)OCc1cc(Cl)ccn1 [Compound 80, O-(4-Chloropyridin-2-yl)methyl, N—(S)-(4-((3-chloro-4-fluorophenyl)carbamoyl)-7-fluoro-2,3-dihydro-1H-inden-1-yl) carbamate Hydrochloride]",0.33 µM
2,"O=C(N[C@H]1CCc2c(C(=O)Nc3ccc(F)c(Cl)c3)ccc(F)c21)OCc1ccon1 [Compound 82, O-Isoxazol-3-ylmethyl, N—(S)-(4-((3-chloro-4-fluorophenyl)carbamoyl)-7-fluoro-2,3-dihydro-1H-inden-1-yl) carbamate]",0.13 µM
3,"O=C(N[C@H]1CCc2c(C(=O)Nc3ccc(F)c(Cl)c3)ccc(F)c21)OCCc1ccccn1 [Compound 83, O-2-(Pyridin-2-yl)ethyl, N—(S)-(4-((3-chloro-4-fluorophenyl)carbamoyl)-7-fluoro-2,3-dihydro-1H-inden-1-yl) carbamate Hydrochloride]",0.18 µM
4,"O=C(N[C@H]1CCc2c(C(=O)Nc3ccc(F)c(Cl)c3)ccc(F)c21)OCCCN1CCCC1=O [Compound 86, O-3-(2-Oxopyrrolidin-1-yl)propyl, N—(S)-(4-((3-chloro-4-fluorophenyl)carbamoyl)-7-fluoro-2,3-dihydro-1H-inden-1-yl) carbamate]",0.43 µM
5,"Cc1cccn2cc(COC(=O)N[C@H]3CCc4c(C(=O)Nc5ccc(F)c(Cl)c5)ccc(F)c43)nc12 [Compound 87, O-(8-Methylimidazo[1,2-a]pyridin-2-yl)methyl, N—(S)-(4-((3-chloro-4-fluorophenyl)carbamoyl)-7-fluoro-2,3-dihydro-1H-inden-1-yl) carbamate Hydrochloride]",0.2 µM
6,"O=C(N[C@H]1CCc2c(C(=O)Nc3ccc(F)c(Cl)c3)ccc(F)c21)OCC(F)(F)F [Compound 88, O-2,2,2-Trifluoroethyl, N—(S)-(4-((3-chloro-4-fluorophenyl)carbamoyl)-7-fluoro-2,3-dihydro-1H-inden-1-yl) carbamate]",0.21 µM
7,"O=C(N[C@H]1CCc2c(C(=O)Nc3ccc(F)c(Cl)c3)ccc(F)c21)OCCn1ccnc1 [Compound 96, O-2-(1H-Imidazol-1-yl)ethyl, N—(S)-(4-((3-chloro-4-fluorophenyl)carbamoyl)-7-fluoro-2,3-dihydro-1H-inden-1-yl) carbamate Hydrochloride]",0.3 µM
8,"O=C(Nc1ccc(F)c(Cl)c1)c1ccc(F)c2c1CC[C@@H]2Nc1ccccn1 [Compound 97, (S)—N-(3-Chloro-4-fluorophenyl)-7-fluoro-1-(pyridin-2-ylamino)-2,3-dihydro-1H-indene-4-carboxamide Hydrochloride]",0.22 µM
9,"O=C(N[C@H]1CCc2c(C(=O)Nc3ccc(F)c(Cl)c3)ccc(F)c21)OCCOc1ccccc1 [Compound 99, O-2-Phenoxyethyl, N—(S)-(4-((3-chloro-4-fluorophenyl)carbamoyl)-7-fluoro-2,3-dihydro-1H-inden-1-yl) carbamate]",1.22 µM
